The target in assay [1] is T1, Recombinant mTOR (FRAP1) (Homo sapiens, UniProt P42345).
T1 construct: purchased Invitrogen
Kind of assay: mTOR in vitro kinase assay (TR-FRET, phosphorylation of GFP-4E-BP1). Type of assay: biochemical. The following applies: for pIC50: 8 μM ATP, 400 nM GFP-4E-BP1; for inhibition at 1 µM: 1 uM compound, read-out: mTOR % Inhib@1 uM. As to the method:
Compounds were evaluated for mTOR activity using an in vitro kinase assay.
mTOR activity is measured in vitro by determining the level of phosphorylation of the protein substrate 4EBP-1. The phosphorylation of GFP-4E-BP1 at threonine residue is recognized by Ab Tb-Anti-p4EBP1, which results in time resolved fluorescence energy transfer (TR-FRET) between GFP and Terbium in the Ab-Protein complex.
Recombinant mTOR (FRAP1), Kinase reaction buffer, GFP-4E-BP1 and LanthaScreen Tb-anti-4E-BP1 (pThr46), TR FRET dilution buffer, Kinase Quench Buffer were obtained from Invitrogen.
Kinase reactions were performed in 10 μl volume in Corning white 384 well plates. […] The reaction was initiated by the addition of substrate (GFP-4E-BP1) and ATP at a final conc. of 400 nM and 8 μM ATP in the reaction respectively. The kinase reaction was allowed to proceed for 1 hour at room temperature before a 10 μL preparation of kinase quench buffer and Tb-labeled Antibody in TR-FRET dilution buffer was added. The final concentration of the antibody in the assay well is 2 nM and the final concentration of EDTA is 10 mM. The plate was incubated at room temperature for 1 h.
(§1) FRET signal was read in Envision Multilabel Reader with the following filters:
Excitation-330 nm and Emission 486 nm (donor) and 520 nm (acceptor).
TR FRET Ratio (Fluorescence 520 nm/Fluorescence 486 nm) was plotted against the concentration of inhibitor and data was fit to Non Linear Regression curve fit (sigmoidal dose response curve with variable slope-four parameters) using Graph Pad Prism 5.

The target in assay [2] is T2, PI3 Kinase alpha (p110 alpha/p85 alpha) (Homo sapiens, UniProt P42336).
T2 construct: purchased Invitrogen
Kind of assay: PI3K TR-FRET assay (Transcreener ADP2). Type of assay: biochemical. The following applies: for inhibition at 1 µM: 1 uM compound, read-out: PI3K % Inhib@1 uM; for pIC50: PI3K alpha, 1 μM ATP, 50 μM PIP2. The protocol:
Enzymatic activity of PI3K alpha was measured using Time resolved Fluorescence resonance energy transfer (TR-FRET) assay. This assay utilizes ADP detection as a means to screen inhibitor potency of compounds. The Transcreener ADP2 TR-FRET Red Assay is a competitive immunoassay for ADP with a far-red, TR-FRET readout and it has been used for this purpose. The assay can be used for any enzyme class that produces ADP (Kinases, ATPases). It consists of ADP HiLyte647 Tracer, ADP^2 Antibody-Tb conjugate (800 nM), stop & detect buffer, 5 mM ATP, 5 mM ADP. The ADP HiLyte647 Tracer is bound to an ADP^2 Antibody-Tb conjugate. The excitation of the terbium complex in the UV range results in energy transfer to the tracer and emission at a higher wavelength after a time delay ADP produced by the target enzyme displaces the tracer which causes decrease in TR-FRET.
The reaction buffer used for the assay was 50 mM HEPES, pH 7.4.3 mM MgCl2, 0.05% CHAPS, 50 mM NaCl, 2 mM DTT, 1 mM EGTA. PI3 Kinase alpha (p110 alpha/p85 alpha) and PIP2 Substrate (diC8,) were procured from Invitrogen and Echelon respectively.
Kinase reactions were performed in 10 μl volume in Corning white 384 well plates. […] Reaction was initiated by the addition of substrate (PIP2) and ATP at final conc. of 50 μM and 1 μM ATP in the reaction respectively. Kinase reactions were allowed to proceed for 1 hour at room temperature before a 10 μL preparation of Transcreener ADP detection mix was added. Plate was incubated at room temperature for 1 hr. ADP-ATP standard curves were also prepared.
as §1
Excitation-330 nm and Emission 615 nm (donor) and 665 nm (acceptor). TR FRET Ratio (Fluorescence 665 nm/Fluorescence 615 nm) was converted to amount of product formed using the standard curve generated. Percentage inhibition was calculated and plotted against the concentration of inhibitor and data was fit to Non Linear Regression curve fit (sigmoidal dose response curve with variable slope-four parameters) using Graph pad prism 5 and IC50 was calculated for the compound.

Structures are written as SMILES. pIC50: −log10 of the molar value.

T2 sequence (P42336 whole entry): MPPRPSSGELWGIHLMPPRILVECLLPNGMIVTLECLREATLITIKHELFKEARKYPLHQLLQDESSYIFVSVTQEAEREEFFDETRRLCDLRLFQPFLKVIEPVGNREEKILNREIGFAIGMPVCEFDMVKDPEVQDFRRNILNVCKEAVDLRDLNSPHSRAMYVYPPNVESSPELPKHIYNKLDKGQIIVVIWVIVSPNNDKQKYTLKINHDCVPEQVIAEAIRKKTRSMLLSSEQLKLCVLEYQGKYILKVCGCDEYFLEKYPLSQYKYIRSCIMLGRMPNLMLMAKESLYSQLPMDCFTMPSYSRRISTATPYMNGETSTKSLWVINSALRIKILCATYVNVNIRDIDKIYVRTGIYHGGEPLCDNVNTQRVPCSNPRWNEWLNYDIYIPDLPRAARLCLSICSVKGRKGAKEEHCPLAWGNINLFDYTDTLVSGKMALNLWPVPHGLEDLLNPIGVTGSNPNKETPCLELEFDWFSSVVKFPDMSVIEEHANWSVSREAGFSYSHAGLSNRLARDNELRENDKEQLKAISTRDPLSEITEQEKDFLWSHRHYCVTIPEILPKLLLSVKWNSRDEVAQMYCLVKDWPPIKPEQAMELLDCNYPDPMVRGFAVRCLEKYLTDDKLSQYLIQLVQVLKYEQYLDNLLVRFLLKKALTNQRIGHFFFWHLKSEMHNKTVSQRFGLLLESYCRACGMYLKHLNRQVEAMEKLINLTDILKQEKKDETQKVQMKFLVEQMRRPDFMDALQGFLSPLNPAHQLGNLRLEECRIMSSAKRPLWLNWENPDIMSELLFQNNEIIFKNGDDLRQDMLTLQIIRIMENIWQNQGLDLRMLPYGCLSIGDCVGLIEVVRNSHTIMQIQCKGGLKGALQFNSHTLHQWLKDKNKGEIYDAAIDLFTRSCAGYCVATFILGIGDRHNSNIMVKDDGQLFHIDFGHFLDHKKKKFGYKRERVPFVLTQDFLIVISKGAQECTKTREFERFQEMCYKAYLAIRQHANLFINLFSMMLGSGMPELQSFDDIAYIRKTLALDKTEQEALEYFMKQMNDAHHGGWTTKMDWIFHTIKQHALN
T2 sequence (P27986 whole entry partner): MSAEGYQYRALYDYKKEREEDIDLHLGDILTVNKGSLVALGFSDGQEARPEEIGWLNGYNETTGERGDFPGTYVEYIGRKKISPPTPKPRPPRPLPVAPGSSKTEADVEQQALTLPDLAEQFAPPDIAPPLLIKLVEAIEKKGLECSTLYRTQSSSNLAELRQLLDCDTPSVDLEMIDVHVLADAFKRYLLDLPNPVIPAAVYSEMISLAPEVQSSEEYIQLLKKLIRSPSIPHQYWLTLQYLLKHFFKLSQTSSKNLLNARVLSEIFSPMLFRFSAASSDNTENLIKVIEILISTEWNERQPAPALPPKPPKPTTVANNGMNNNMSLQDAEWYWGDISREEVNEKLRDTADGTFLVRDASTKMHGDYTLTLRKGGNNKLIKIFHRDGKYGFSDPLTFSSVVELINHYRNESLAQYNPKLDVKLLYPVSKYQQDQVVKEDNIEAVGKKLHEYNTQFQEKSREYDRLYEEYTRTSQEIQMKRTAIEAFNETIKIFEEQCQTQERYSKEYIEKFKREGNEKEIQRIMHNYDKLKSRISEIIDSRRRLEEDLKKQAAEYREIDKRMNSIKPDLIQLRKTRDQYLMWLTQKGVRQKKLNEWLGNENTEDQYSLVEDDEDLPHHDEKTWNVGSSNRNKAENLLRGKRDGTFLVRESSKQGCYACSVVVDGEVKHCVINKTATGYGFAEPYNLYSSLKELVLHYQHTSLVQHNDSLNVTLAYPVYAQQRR
T1 sequence (P42345 1360-2549 limits assumed): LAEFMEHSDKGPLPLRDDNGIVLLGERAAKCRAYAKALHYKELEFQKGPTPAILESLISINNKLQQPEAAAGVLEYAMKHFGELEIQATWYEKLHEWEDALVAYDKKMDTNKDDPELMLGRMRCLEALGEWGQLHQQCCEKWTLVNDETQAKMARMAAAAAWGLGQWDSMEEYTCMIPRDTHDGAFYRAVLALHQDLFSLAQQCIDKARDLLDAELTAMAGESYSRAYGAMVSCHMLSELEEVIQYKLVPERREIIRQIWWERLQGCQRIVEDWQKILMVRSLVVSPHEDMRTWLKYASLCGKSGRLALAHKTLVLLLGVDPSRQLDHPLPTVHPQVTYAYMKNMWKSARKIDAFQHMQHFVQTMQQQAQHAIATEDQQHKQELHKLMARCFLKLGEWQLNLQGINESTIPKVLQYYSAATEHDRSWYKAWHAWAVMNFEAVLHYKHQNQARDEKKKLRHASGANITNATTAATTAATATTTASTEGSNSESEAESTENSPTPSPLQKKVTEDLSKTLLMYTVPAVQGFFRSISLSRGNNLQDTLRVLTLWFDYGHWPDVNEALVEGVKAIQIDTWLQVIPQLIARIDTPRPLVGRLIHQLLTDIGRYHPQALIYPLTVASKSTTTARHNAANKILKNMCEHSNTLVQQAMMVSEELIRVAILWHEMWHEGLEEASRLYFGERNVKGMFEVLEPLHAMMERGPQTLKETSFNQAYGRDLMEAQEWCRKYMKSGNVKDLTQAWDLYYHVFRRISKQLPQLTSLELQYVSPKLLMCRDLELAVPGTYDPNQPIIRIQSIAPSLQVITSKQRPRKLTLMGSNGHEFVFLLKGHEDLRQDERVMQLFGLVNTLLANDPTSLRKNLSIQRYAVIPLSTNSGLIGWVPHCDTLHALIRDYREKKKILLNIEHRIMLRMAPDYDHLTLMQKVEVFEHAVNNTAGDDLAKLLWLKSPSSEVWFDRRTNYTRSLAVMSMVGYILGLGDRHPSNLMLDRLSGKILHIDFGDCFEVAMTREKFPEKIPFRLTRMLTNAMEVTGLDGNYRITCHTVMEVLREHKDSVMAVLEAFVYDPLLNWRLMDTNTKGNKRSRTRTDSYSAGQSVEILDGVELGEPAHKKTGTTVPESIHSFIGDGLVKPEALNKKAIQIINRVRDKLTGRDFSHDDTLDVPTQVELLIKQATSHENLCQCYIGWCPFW

In the case of `C[C@@H]1COCCN1c1nc(Oc2ccc(C(=O)N(C)C)cc2F)nc(-c2cnc(N)s2)n1` [Compound 10156, 4-(4-(2-aminothiazol-5-yl)-6-((R)-3-methylmorpholino)-1,3,5-triazin-2-yloxy)-3-fluoro-N,N-dimethylbenzamide], the pIC50 in assay [1] is over 6.00. Besides, in assay [2], the inhibition at 1 µM was under 50% and the pIC50 was 5.52.

Take `CN(C)C(=O)c1ccc(Oc2nc(-c3cnc(N)s3)nc(N3[C@@H]4CC[C@H]3COC4)n2)cc1` [Compound 10011, 4-(4-(2-aminothiazol-5-yl)-6-((1R,5S)-3-oxa-8-azabicyclo[3.2.1]octan-8-yl)-1,3,5-triazin-2-yloxy)-N,N-dimethylbenzamide]: in assay [1], the inhibition at 1 µM is over 50% and the pIC50 was over 6.00. In assay [2], this compound showed a pIC50 of under 6.00.

`CN(C)C(=O)c1ccc(Oc2nc(-c3cnc(N)cc3C(F)(F)F)nc(N3CCOCC3)n2)c(F)c1` [Compound 10065, 4-((4-(6-Amino-4-(trifluoromethyl)pyridine-3-yl)-6-morpholino-1,3,5-triazin-2-yl)oxy)-3-fluoro-N,N-dimethylbenzamide]: the pIC50 in assay [1] and in assay [2] was over 6.00 in each case.

On to `CN(C)C(=O)c1ccc(Oc2nc(-c3ccc(N)nc3)nc(N3CCCOCC3)n2)cc1` [Compound 10178, 4-((4-(6-aminopyridin-3-yl)-6-(1,4-oxazepan-4-yl)-1,3,5-triazin-2-yl)oxy)-N,N-dimethylbenzamide], for which the inhibition at 1 µM in assay [1] was under 50%. Moreover, the pIC50 in assay [2] is over 6.00.

`C[C@@H]1COC[C@H](C)N1c1nc(Oc2ccc(C(=O)N(C)C)cc2)nc(-c2cnc(N)s2)n1` [Compound 10079, 4-((4-(2-Aminothiazol-5-yl)-6-((3S,5R)-3,5-dimethylmorpholino)-1,3,5-triazin-2-yl)oxy)-N,N-dimethybenzamide]: the pIC50 is over 6.00 in assay [1] and under 6.00 in assay [2]. In addition, the inhibition at 1 µM in assay [2] is under 50%.

As to `C[C@H]1COCCN1c1nc(O[C@H]2CC[C@H](C(=O)N(C)C)CC2)nc(-c2ccc(CO)cc2)n1` [Compound 10203, (1S,4r)-4-((4-(4-(hydroxymethyl)phenyl)-6-((S)-3-methylmorpholino)-1,3,5-triazin-2-yl)oxy)-N,N-dimethylcyclohexane-1-carboxamide], the pIC50 in assay [1] is under 5.52. The inhibition at 1 µM in assay [2] was under 50%.

Turning to `C[C@H]1COCCN1c1nc(Oc2ccc(C(=O)N(C)C)cc2)nc(-c2cnc(N)s2)n1` [Compound 10005, (S)-4-(4-(2-aminothiazol-5-yl)-6-(3-methylmorpholino)-1,3,5-triazin-2-yloxy)-N,N-dimethylbenzamide], in assay [1], the inhibition at 1 µM is over 50% and the pIC50 is over 6.00. The same compound showed a pIC50 in assay [2] of over 6.00.

`Nc1ccc(-c2nc(CO)nc(N3CCOCC3)n2)cn1` [Compound 10176, (4-(6-aminopyridin-3-yl)-6-morpholino-1,3,5-triazin-2-yl)methanol]: the inhibition at 1 µM in assay [1] is under 50%. Moreover, the pIC50 in assay [2] was over 6.00.

Regarding `Nc1ccc(-c2nc(Oc3ccc4c(c3)CCC(=O)N4)nc(N3CCOCC3)n2)cn1` [Compound 10182, 6-((4-(6-aminopyridin-3-yl)-6-morpholino-1,3,5-triazin-2-yl)oxy)-3,4-dihydroquinolin-2(1H)-one], in assay [1], the inhibition at 1 µM was over 50% and the pIC50 is under 6.00. This compound also had a pIC50 in assay [2] of over 6.00.

In the case of `CC[C@@H]1COCCN1c1nc(Oc2ccc(C(=O)N(C)C)cc2)nc(-c2cnc(N)s2)n1` [Compound 10082, (R)-4-((4-(2-Aminothiazol-5-yl)-6-(3-ethylmorpholino)-1,3,5-triazin-2-yl)oxy)-N,N-dimethylbenzamide], the inhibition at 1 µM in assay [1] and in assay [2] was under 50% each time.

Regarding `C[C@@H]1COCCN1c1nc(Oc2ccc(C(=O)N(C)C)cc2)nc(-c2cnc(N)s2)n1` [Compound 10004, (R)-4-(4-(2-aminothiazol-5-yl)-6-(3-methylmorpholino)-1,3,5-triazin-2-yloxy)-N,N-dimethylbenzamide], in assay [1], the inhibition at 1 µM is under 50% and the pIC50 was over 6.00. This compound also had a pIC50 in assay [2] of under 6.00.

In the case of `C[C@H]1COCCN1c1nc(Oc2ccc(C(=O)N(C)C)cc2)nc(-c2cnc(N)cc2C(F)(F)F)n1` [Compound 10066, (S)-4-((4-(6-Amino-4-(trifluoromethyl)pyridine-3-yl)-6-(3-methylmorpholino)-1,3,5-triazin-2-yl)oxy)-N,N-dimethylbenzamide], the pIC50 in assay [1] and in assay [2] was over 6.00 each time.

In the case of `CS(=O)(=O)N1CCC(COc2nc(-c3cnc(N)s3)nc(N3CCOCC3)n2)CC1` [Compound 10194, 5-(4-((1-(methylsulfonyl)piperidin-4-yl)methoxy)-6-morpholino-1,3,5-triazin-2-yl)thiazol-2-amine], the inhibition at 1 µM in assay [1] was under 50%. This compound also gave a pIC50 in assay [2] of over 6.00.

On to `Cc1nc(N)sc1-c1nc(Oc2ccc(C(=O)N(C)C)cc2)nc(N2CCOCC2)n1` [Compound 10199, 4-((4-(2-amino-4-methylthiazol-5-yl)-6-morpholino-1,3,5-triazin-2-yl)oxy)-N,N-dimethylbenzamide], for which, in assay [1], the inhibition at 1 µM was under 50%. Moreover, the pIC50 in assay [2] is over 6.00.

On to `CC[C@H]1COCCN1c1nc(Oc2ccc(C(=O)N(C)C)cc2)nc(-c2cnc(N)s2)n1` [Compound 10081, (S)-4-((4-(2-Aminothiazol-5-yl)-6-(3-ethylmorpholino)-1,3,5-triazin-2-yl)oxy)-N,N-dimethylbenzamide], for which, in assay [1], the inhibition at 1 µM is over 50% and the pIC50 is over 6.00. For the same compound, in assay [2], the inhibition at 1 µM was over 50% and the pIC50 was over 6.00.

On to `CN(C)C(=O)Cc1ccc(Oc2nc(-c3cnc(N)nc3)nc(N3CCOCC3)n2)cc1` [Compound 10189, 2-(4-((4-(2-aminopyrimidin-5-yl)-6-morpholino-1,3,5-triazin-2-yl)oxy)phenyl)-N,N-dimethylacetamide], for which the inhibition at 1 µM in assay [1] is under 50%. The compound further had a pIC50 in assay [2] of over 6.00.

For `CC1COCCN1c1nc(Oc2ccc(C(=O)N(C)C)cc2)nc(-c2cnc(N)s2)n1` (centres unmarked) [Compound 10006, 4-(4-(2-aminothiazol-5-yl)-6-(3-methylmorpholino)-1,3,5-triazin-2-yloxy)-N,N-dimethylbenzamide], the inhibition at 1 µM in assay [1] is under 50%. For the same compound, in assay [2], the inhibition at 1 µM was over 50% and the pIC50 is under 6.00.

For `CN(C)C(=O)c1ccc(Oc2nc(-c3cnc(N)s3)nc(N3CC4CCC(C3)O4)n2)c(F)c1` [Compound 10154, 4-(4-(8-oxa-3-aza-bicyclo[3.2.1]octan-3-yl)-6-(2-aminothiazol-5-yl)-1,3,5-triazin-2-yloxy)-3-fluoro-N,N-dimethylbenzamide], the pIC50 in assay [1] is over 6.00. For the same compound, in assay [2], the inhibition at 1 µM is under 50% and the pIC50 was under 6.00.

Take `C[C@H]1COC[C@H](C)N1c1nc(Oc2ccc(C(=O)N(C)C)cc2)nc(-c2cnc(N)s2)n1` [Compound 10078, 4-((4-(2-Aminothiazol-5-yl)-6-((3S,5S)-3,5-dimethylmorpholino)-1,3,5-triazin-2-yl)oxy)-N,N-dimethybenzamide]: the inhibition at 1 µM in assay [1] and in assay [2] was over 50% in each case. Moreover, the pIC50 in assay [1] and in assay [2] was over 6.00 throughout.
